Reference: US11578343B2, “CAS9 proteins including ligand-dependent inteins” (President and Fellows of Harvard College, priority 2014, dated 2023)

What was measured:
Assay type in all cases: cell-based, human
[1] = tested on: HEK293-GFP stable cells; assay: Western blot analysis of intein splicing; conditions: FIG. 6
Procedure: FIGS. 6A-6B. […] 12 h after transfection, cells were treated with or without 4-HT (1 μM). Cells were lysed and pooled from three technical replicates 4, 8, 12, or 24 h after 4-HT treatment. An anti-FLAG antibody (Sigma-Aldrich F1804) and an anti-mouse 800CW IRDye (LI-COR) were used to visualize the gel. Lanes 1 and 2 contain purified dCas9-VP64-3×FLAG protein and lysate from untransfected HEK293 cells, respectively.
Western blot analysis of intein splicing. HEK293-GFP stable cells were transfected with 500 ng Cas9 expression plasmid and 125 ng sgRNA expression plasmid. 12 h after transfection, the media was replaced with full serum media, with or without 4-HT (1 μM). Cells were lysed and pooled from three technical replicates 4, 8, 12, or 24 h after 4-HT treatment. Samples were run on a Bolt 4-12% Bis-Tris gel (Life Technologies). An anti-FLAG antibody (Sigma-Aldrich F1804) and an anti-mouse 800CW IRDye (LI-COR) were used to visualize the gel on an Odyssey IR imager.

[2] = tested on: EMX Off 3; assay: High-throughput DNA sequencing of genome modifications; conditions: 500 ng Cas9 plasmid; for Mod. Freq (indels/total sequences), EMX Off 3: Table 4
Procedure: (§1) We assayed these Cas9:sgRNA combinations in human cells for their ability to modify the three on-target loci as well as 11 known off-target genomic sites (Table 3)^4,5,10,13. Cells were treated with or without 1 μM 4-HT during transfection, and after 12 h the media was replaced with fresh media lacking 4-HT. […] Genomic DNA was isolated 60 h post-transfection and analyzed by high-throughput DNA sequencing
(§2) High-throughput DNA sequencing of genome modifications. HEK293-GFP stable cells were transfected with plasmids expressing Cas9 (500 ng) and sgRNA (125 ng) as described above. […] 4-HT (1 μM final), where appropriate, was added during transfection. 12 h after transfection, the media was replaced with full serum media without 4-HT. Genomic DNA was isolated and pooled from three biological replicates 60 h after transfection using a previously reported^11 protocol with a DNAdvance Kit (Agencourt). 150 ng or 200 ng of genomic DNA was used as a template to amplify by PCR the on-target and off-target genomic sites with flanking HTS primer pairs described previously^11. PCR products were purified using RapidTips (Diffinity Genomics) and quantified using the PicoGreen dsDNA Assay Kit (Invitrogen). Purified DNA was PCR amplified with primers containing sequencing adaptors, purified with the MinElute PCR Purification Kit (Qiagen) and AMPure XP PCR Purification (Agencourt). Samples were sequenced on a MiSeq high-throughput DNA sequencer (Illumina), and sequencing data was analyzed as described previously^4.
(§3) Sensitivity limit of off-target cleavage assays. We used paired end sequencing to identify indels caused by genomic on- and off-target cleavage. […] A 1 ng sample of human gDNA represents only ˜330 unique genomes, and thus only ˜330 unique copies of each genomic site are present. PCR amplification for each genomic target was performed on a total of 150 ng or 200 ng of input gDNA, which provides amplicons derived from at most 50,000 or 65,000 unique gDNA copies, respectively. Therefore, the high-throughput sequencing assay cannot detect rare genome modification events that occur at a frequency of less than approximately 1 in 50,000 (0.002%). When comparing between two conditions, such as wt Cas9 vs. intein-Cas9, this threshold becomes approximately 10 in 50,000 (0.02%) when using the Fisher exact test and a conservative multiple comparison correction (Bonferroni with 14 samples). See also Minoche, A. E., Dohm, J. C., & Himmelbauer, H. Evaluation of genomic high-throughput sequencing data generated on Illumina HiSeq and Genome Analyzer systems. Genome Biology 12, R112 (2011).

[3] = tested on: EMX Off 4; assay: as above; conditions: 500 ng Cas9 plasmid; for Mod. Freq (indels/total sequences), EMX Off 4: Table 4
Procedure: as §1, §2, §3

[4] = tested on: CLTA On; assay: as above; conditions: 500 ng Cas9 plasmid; for Mod. Freq (indels/total sequences), CLTA On: Table 4
Procedure: as §1, §2, §3

[5] = tested on: CLTA Off 2; assay: as above; conditions: 500 ng Cas9 plasmid; for Mod. Freq (indels/total sequences), CLTA Off 2: Table 4
Procedure: as §1, §2, §3

[6] = tested on: VEGF Off 3; assay: as above; conditions: 500 ng Cas9 plasmid; for Mod. Freq (indels/total sequences), VEGF Off 3: Table 4
Procedure: as §1, §2, §3

[7] = tested on: CLTA Off 1; assay: as above; conditions: 500 ng Cas9 plasmid; for Mod. Freq (indels/total sequences), CLTA Off 1: Table 4
Procedure: as §1, §2, §3

[8] = tested on: VEGF Off 1; assay: as above; conditions: 500 ng Cas9 plasmid; for Mod. Freq (indels/total sequences), VEGF Off 1: Table 4
Procedure: as §1, §2, §3

[9] = tested on: VEGF Off 2; assay: as above; conditions: 500 ng Cas9 plasmid; for Mod. Freq (indels/total sequences), VEGF Off 2: Table 4
Procedure: as §1, §2, §3

[10] = tested on: EMX Off 1; assay: as above; conditions: 500 ng Cas9 plasmid; for Mod. Freq (indels/total sequences), EMX Off 1: Table 4
Procedure: as §1, §2, §3

[11] = tested on: CLTA Off 3; assay: as above; conditions: 500 ng Cas9 plasmid; for Mod. Freq (indels/total sequences), CLTA Off 3: Table 4
Procedure: as §1, §2, §3

[12] = tested on: VEGF On; assay: as above; conditions: 500 ng Cas9 plasmid; for Mod. Freq (indels/total sequences), VEGF On: Table 4
Procedure: as §1, §2, §3

[13] = tested on: EMX On; assay: as above; conditions: 500 ng Cas9 plasmid; for Mod. Freq (indels/total sequences), EMX On: Table 4
Procedure: as §1, §2, §3

[14] = tested on: EMX Off 2; assay: as above; conditions: 500 ng Cas9 plasmid; for Mod. Freq (indels/total sequences), EMX Off 2: Table 4
Procedure: as §1, §2, §3

[15] = tested on: VEGF Off 4; assay: as above; conditions: 500 ng Cas9 plasmid; for Mod. Freq (indels/total sequences), VEGF Off 4: Table 4
Procedure: as §1, §2, §3

[16] = tested on: EMX, VEGF, and CLTA genomic loci; assay: High-throughput DNA sequencing of genome modifications, summary over on-target and off-target sites
Procedure: as §1, §2, §3

## intein(Ser219)-Cas9: Cas9 with 37R3-2 intein replacing Ser219 (SEQ ID NO: 30)
[1]; absence of 4-HT
  Spliced product (Western blot): no spliced product was detected
[1]; earliest assayed time point (4 h) following 4-HT treatment (1 μM)
  Spliced product (Western blot): presence of spliced product
[2]; +4-HT (1 μM, 12 h)
  Mod. Freq (indels/total sequences), EMX Off 3: 0.77%
[2]; +4-HT, Table 6
  Mod Freq (indels/total sequences), EMX Off 3: 0.54%
[2]; −4-HT
  Mod. Freq (indels/total sequences), EMX Off 3: 0.05%
[3]; +4-HT (1 μM, 12 h)
  Mod. Freq (indels/total sequences), EMX Off 4: 3.16%
[3]; +4-HT, Table 6
  Mod Freq (indels/total sequences), EMX Off 4: 2.18%
[3]; −4-HT
  Mod. Freq (indels/total sequences), EMX Off 4: 0.19%
[4]; +4-HT (1 μM, 12 h)
  Mod. Freq (indels/total sequences), CLTA On: 14.48%
[4]; +4-HT, Table 6
  Mod Freq (indels/total sequences), CLTA On: 9.13%
[4]; −4-HT
  Mod. Freq (indels/total sequences), CLTA On: 4.30%
[5]; +4-HT (1 μM, 12 h)
  Mod. Freq (indels/total sequences), CLTA Off 2: 0.00%
[5]; +4-HT, Table 6
  Mod Freq (indels/total sequences), CLTA Off 2: 0.00%
[5]; −4-HT
  Mod. Freq (indels/total sequences), CLTA Off 2: 0.00%
[6]; +4-HT (1 μM, 12 h)
  Mod. Freq (indels/total sequences), VEGF Off 3: 0.37%
[6]; +4-HT, Table 6
  Mod Freq (indels/total sequences), VEGF Off 3: 0.16%
[6]; −4-HT
  Mod. Freq (indels/total sequences), VEGF Off 3: 0.04%
[7]; +4-HT (1 μM, 12 h)
  Mod. Freq (indels/total sequences), CLTA Off 1: 0.36%
[7]; +4-HT, Table 6
  Mod Freq (indels/total sequences), CLTA Off 1: 0.23%
[7]; −4-HT
  Mod. Freq (indels/total sequences), CLTA Off 1: 0.01%
[8]; +4-HT (1 μM, 12 h)
  Mod. Freq (indels/total sequences), VEGF Off 1: 8.50%
[8]; +4-HT, Table 6
  Mod Freq (indels/total sequences), VEGF Off 1: 4.61%
[8]; −4-HT
  Mod. Freq (indels/total sequences), VEGF Off 1: 0.43%
[9]; +4-HT (1 μM, 12 h)
  Mod. Freq (indels/total sequences), VEGF Off 2: 1.49%
[9]; +4-HT, Table 6
  Mod Freq (indels/total sequences), VEGF Off 2: 0.90%
[9]; −4-HT
  Mod. Freq (indels/total sequences), VEGF Off 2: 0.08%
[10]; +4-HT (1 μM, 12 h)
  Mod. Freq (indels/total sequences), EMX Off 1: 0.42%
[10]; +4-HT, Table 6
  Mod Freq (indels/total sequences), EMX Off 1: 0.20%
[10]; −4-HT
  Mod. Freq (indels/total sequences), EMX Off 1: 0.01%
[11]; +4-HT (1 μM, 12 h)
  Mod. Freq (indels/total sequences), CLTA Off 3: 0.03%
[11]; +4-HT, Table 6
  Mod Freq (indels/total sequences), CLTA Off 3: 0.01%
[11]; −4-HT
  Mod. Freq (indels/total sequences), CLTA Off 3: 0.00%
[12]; +4-HT (1 μM, 12 h)
  Mod. Freq (indels/total sequences), VEGF On: 3.66%
[12]; +4-HT, Table 6
  Mod Freq (indels/total sequences), VEGF On: 3.17%
[12]; −4-HT
  Mod. Freq (indels/total sequences), VEGF On: 1.05%
[13]; +4-HT (1 μM, 12 h)
  Mod. Freq (indels/total sequences), EMX On: 13.57%
[13]; +4-HT, Table 6
  Mod Freq (indels/total sequences), EMX On: 8.25%
[13]; −4-HT
  Mod. Freq (indels/total sequences), EMX On: 1.87%
[14]; +4-HT (1 μM, 12 h)
  Mod. Freq (indels/total sequences), EMX Off 2: 0.04%
[14]; +4-HT, Table 6
  Mod Freq (indels/total sequences), EMX Off 2: 0.04%
[14]; −4-HT
  Mod. Freq (indels/total sequences), EMX Off 2: 0.02%
[15]; +4-HT (1 μM, 12 h)
  Mod. Freq (indels/total sequences), VEGF Off 4: 3.89%
[15]; +4-HT, Table 6
  Mod Freq (indels/total sequences), VEGF Off 4: 2.03%
[15]; −4-HT
  Mod. Freq (indels/total sequences), VEGF Off 4: 0.10%
[16]; absence of 4-HT
  Activity compared to wild-type Cas9: much less active
[16]; presence of 4-HT
  Activity compared to wild-type Cas9: slightly less active than wild-type Cas9
